Experimental data from article PMC9827882, “Templated Generation of a Bcl‐xL Inhibitor by Isomer‐Free SPAAC Based on Azacyclonon‐5‐yne” (Chemistry (Weinheim an Der Bergstrasse, Germany), 2022).
Each block holds one compound with its values, some of them ahead of it.

Experiments:
Bcl‐xL [1] = molecular target: T1, Bcl‐xL (Homo sapiens, UniProt Q07817, DEL45-84); experiment: Competitive fluorescence polarization (FP) binding assay: Bcl‐xL and fluorescein‐labeled Bak BH3‐derived peptide; settings: for IC50: Bcl‐xL 37 nM, Bak BH3 peptide 4 nM, triplicate, read-out: IC50 against Bcl‐xL in FP assay
T1 construct: The protein Bcl‐xL (amino acids 1‐209, Δ45–84, kindly provided by Prof. Ho Sup Yoon); gift of Prof; Ho Sup Yoon, Nanyang Technological University, Singapore
T1 sequence (Q07817 with tags, fused parts or gaps DEL45-84): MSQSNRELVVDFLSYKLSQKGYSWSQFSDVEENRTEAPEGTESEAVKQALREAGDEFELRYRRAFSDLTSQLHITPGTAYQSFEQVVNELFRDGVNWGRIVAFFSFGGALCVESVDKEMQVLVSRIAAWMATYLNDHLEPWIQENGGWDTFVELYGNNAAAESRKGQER
Method: The abilities of triazoles 11 a/c to interfere with binding between Bcl‐xL and a fluorescein‐labeled peptide derived from the pro‐apoptotic Bcl‐2 protein Bak was analyzed in a competitive binding assay based on fluorescence polarization (FP).[9, 20]
Fluorescence polarization assays: Assays were performed essentially as described previously.[20, 30] The protein Bcl‐xL (amino acids 1‐209, Δ45–84, kindly provided by Prof. Ho Sup Yoon, Nanyang Technological University, Singapore)[31] was incubated with the test compounds for 1 h at room temperature at a protein concentration of 37 nM. Subsequently, fluorophore‐labeled Bak BH3‐derived peptide (5‐carboxyfluorescein‐[…]‐NH2 was added (final peptide concentration: 4 nM), and the fluorescence polarization was measured after another 60 min in a plate reader (Tecan Infinite F500). All experiments were carried out in triplicate. Buffer composition: 10 mM Tris pH 8.0, 50 mM NaCl, 1 mM EDTA, 0.1 % Nonidet P‐40 substitute, 1 mM DTT, and 2 % DMSO.

Bcl‐xL [2] = molecular target: T1, Bcl‐xL; experiment: Kinetic analysis by HPLC of the reaction between 12 d and 13 to generate 11 d in aqueous buffer, templated by Bcl‐xL; settings: for second‐order rate constant k of formation of 11 d from 12 d and 13: 12 d and 13 both 50 μM; for second‐order rate constant k of formation of 11 d from 12 d and 13 / rate acceleration over the reaction of 1 and benzyl azide in acetonitrile at room temperature: aqueous buffer, 37 °C
Method: While the reactivities of cycloalkynes are typically characterized by their second‐order rate constants in the reaction with benzylazide in CD3CN, or sometimes CD3OD, the relevant reactivity of a cycloalkyne for use in iSPAAC is the reactivity between the functionalized cycloalkyne and the functionalized azide in aqueous media at the physiological temperature of 37 °C. We therefore analyzed the kinetics of the reaction between the functionalized cycloalkyne 12 d and the azide 13 in aqueous buffer by reversed‐phase (RP)‐HPLC. Incubation of 12 d and 13 (both at 50 μM) at 37 °C generated the triazole 11 d with a second‐order rate constant of 2.1±0.2×10^−3 M^−1 s^−1 (Figures 7 and S6). This represents a 450‐fold rate acceleration over the reaction of 1 and benzyl azide in acetonitrile at room temperature (k=4.7±0.1×10^−6 M^−1 s^−1). In the presence of an additional, equimolar amount of Bcl‐xL, this rate was further increased by a factor of 6 (k=1.33±0.06×10^−2 M^−1 s^−1), representing a 2800‐fold higher rate constant than observed in the standard reaction between 1 and benzyl azide in acetonitrile at room temperature. […] Of particular relevance in this context are the templated synthesis of sulfonamide‐based Bcl‐xL inhibitors using sulfonyl azides and thioacids,[23] and protein‐templated formation of 1,2,3‐triazoles from azides and terminal alkynes in the absence of Cu^I.[24]
Kinetic analysis by HPLC: 12 d (50 μM) and 13 (50 μM) were incubated at 37 °C in the absence of Bcl‐xL, in the presence of Bcl‐xL (50 μM), and in the presence of both Bcl‐xL (50 μM) and ABT‐737 (50 μM). At the given time points, aliquots of 60 μL were diluted with 60 μL of 0.1 % TFA in 4.5 % acetonitrile/H2O and analyzed by RP‐HPLC (100 μL injection volume). The formation of 11 d was quantified by peak area using a standard curve. 1/(50×10^−6−[11 d]) [M^−1] was plotted against time. Linear regression gave the second‐order rate constant k as the slope. Experiments were carried out in triplicate. Buffer composition: 10 mM Tris pH 8.0, 50 mM NaCl, 1 mM EDTA, 0.1 % Nonidet P‐40 substitute, and 4 % DMSO.

[3] = parameters: method as in PMID 18451170; settings: cited from earlier work
[4] = parameters: method as in PMID 18451170; settings: cited from earlier work; remark: listed apart in the source

Compound: CN(C)CC[C@H](CSc1ccccc1)Nc1ccc(S(=O)(=O)NC(=O)Cn2nnc3c2CCCN(C(=O)c2ccccc2-c2ccc(Cl)cc2)CCC3)cc1[N+](=O)[O-] [11 a]
- IC50 (Bcl‐xL [1]): 18 ± 0.7 µM

Compound: O=C(OCc1ccccc1-c1ccc(Cl)cc1)N1CCCC#CCCC1 [12 c]
- activity against Bcl‐xL in FP assay (in words) (Bcl‐xL [1]; 100 μM, FP assay): inactive
- activity against Bcl‐xL in FP assay (in words) (Bcl‐xL [1]; 100 μM, FP assay, listed as 12c): no inhibition

Compound: O=C(OCC1=C(c2ccc(Cl)cc2)CCNC1)N1CCCC#CCCC1 [12 d]
- activity against Bcl‐xL in FP assay (in words) (Bcl‐xL [1]; 100 μM, FP assay): inactive
- activity against Bcl‐xL in FP assay (in words) (Bcl‐xL [1]; 100 μM, FP assay, listed as 12d): no inhibition

Compound: CN(C)CC[C@H](CSc1ccccc1)Nc1ccc(S(=O)(=O)NC(=O)c2ccc(N3CCN(Cc4ccccc4-c4ccc(Cl)cc4)CC3)cc2)cc1[N+](=O)[O-] [ABT‐737]
- oral bioavailability [3]: poor
- cell permeability in tissue culture [4]: cell‐permeable

More lines, now with the values ahead:

- IC50 (Bcl‐xL [1]): 11.4 ± 0.9 µM
Compound: CN(C)CC[C@H](CSc1ccccc1)Nc1ccc(S(=O)(=O)NC(=O)Cn2nnc3c2CCCN(C(=O)OCc2ccccc2-c2ccc(Cl)cc2)CCC3)cc1[N+](=O)[O-] [11 c]

- IC50 (Bcl‐xL [1]): 2.42 ± 0.02 µM
- almost 5-fold higher inhibitory potency of 11 d than 11 c (Bcl‐xL [1]; ratio of IC50 values, 11 d vs 11 c): ~5 fold
- second‐order rate constant k of formation of 11 d from 12 d and 13 (Bcl‐xL [2]; equimolar Bcl‐xL (50 μM)): 1.33±0.06×10^−2 M^−1 s^−1
- rate acceleration over the reaction of 1 and benzyl azide in acetonitrile at room temperature (Bcl‐xL [2]; no Bcl‐xL): 450 fold
- second‐order rate constant k of formation of 11 d from 12 d and 13 (Bcl‐xL [2]; no Bcl‐xL, RP‐HPLC): 2.1±0.2×10^−3 M^−1 s^−1
- rate increase by Bcl‐xL (template effect) (Bcl‐xL [2]; with equimolar Bcl‐xL vs without Bcl‐xL): 6 factor
- rate acceleration over the reaction of 1 and benzyl azide in acetonitrile at room temperature (Bcl‐xL [2]; with equimolar Bcl‐xL): 2800 fold
Compound: CN(C)CC[C@H](CSc1ccccc1)Nc1ccc(S(=O)(=O)NC(=O)Cn2nnc3c2CCCN(C(=O)OCC2=C(c4ccc(Cl)cc4)CCNC2)CCC3)cc1[N+](=O)[O-] [11 d]

- activity against Bcl‐xL in FP assay (in words) (Bcl‐xL [1]; 100 μM, FP assay): inactive
- activity against Bcl‐xL in FP assay (in words) (Bcl‐xL [1]; 100 μM, FP assay, listed as 12a): no inhibition
Compound: O=C(c1ccccc1-c1ccc(Cl)cc1)N1CCCC#CCCC1 [12 a]

- inhibition at 100 µM (Bcl‐xL [1]; 100 μM, FP assay): 48 ± 3%
Compound: CN(C)CC[C@H](CSc1ccccc1)Nc1ccc(S(=O)(=O)NC(=O)CN=[N+]=[N-])cc1[N+](=O)[O-] [compound 13]
